This is an account of results in patent US5288730A, “Azabicyclic compounds, pharmaceutical compositions containing them and their use in therapy” (Merck Sharp & Dohme Limited, priority 1991, dated 1994).

Structures can show the parent of a compound that is named as a salt.

For the assay, the target named is T1, human neurokinin-1-receptor (NK1R) (Homo sapiens, UniProt P25103).
T1 construct: expressed in transfected cells
T1 sequence (P25103 whole entry): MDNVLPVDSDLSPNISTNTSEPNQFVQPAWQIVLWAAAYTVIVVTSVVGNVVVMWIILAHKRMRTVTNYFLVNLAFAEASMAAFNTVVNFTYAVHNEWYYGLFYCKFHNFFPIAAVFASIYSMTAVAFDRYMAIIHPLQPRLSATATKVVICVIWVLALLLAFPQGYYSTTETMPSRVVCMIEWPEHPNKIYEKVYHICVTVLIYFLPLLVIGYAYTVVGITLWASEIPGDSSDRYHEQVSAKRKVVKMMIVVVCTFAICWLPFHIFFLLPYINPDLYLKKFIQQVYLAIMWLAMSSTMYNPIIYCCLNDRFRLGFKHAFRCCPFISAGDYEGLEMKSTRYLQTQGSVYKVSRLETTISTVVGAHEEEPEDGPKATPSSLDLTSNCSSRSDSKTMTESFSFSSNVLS
The assay can be described thus: Substance P antagonism assay: 125I-substance P binding to human NK1R expressed in COS or CHO cells. The note with it: 125I-substance P displacement, 4° C. or room temperature, 1 hour. As for the experimental part:
To express the cloned human neurokinin-1-receptor (NK1R) transiently in COS, the cDNA for the human NK1R was cloned into the expression vector pCDM9 which was derived from pCDM8 (INVITROGEN) by inserting the ampicillin resistance gene (nucleotide 1973 to 2964 from BLUESCRIPT SK+ (trademark, STRATAGENE, La Jolla, Calif., USA)) into the Sac II site. Transfection of 20 ug of the plasmid DNA into 10 million COS cells was achieved by electroporation in 800 μof transfection buffer (135 mM NaCl, 1.2 mM CaCl2, 1.2 mM MgCl2 2.4 mM K2 HPO4, 0.6 mM KH2 PO4, 10 mM glucose, 10 mM N-2-hydroxyethyl-piperazine-N'-2-ethane sulphonic acid (HEPES) pH 7.4) at 260 V and 950 μusing the IBI GENEZAPPER (trademark IBI, New Haven, Conn., USA). The cells were incubated in 10% fetal calf serum, 2 mM glutamine, 100 U/ml penicillin-streptomycin, and 90% DMEM media (GIBCO, Grand Island, N.Y., USA) in 5% CO2 at 37° C. for three days before the binding assay.
To establish a stable cell line expressing cloned human NK1R, the cDNA was subcloned into the vector pRcCMV (INVITROGEN). Transfection of 20 ug of the plasmid DNA into CHO cells was achieved by electroporation in 800 μl of transfection buffer supplemented with 0.625 mg/ml Herring sperm DNA at 300 V and 950 μF using the IBI GENEZAPPER (IBI). The transfected cells were incubated in CHO media [10% fetal calf serum, 100 U/ml penicillin-streptomycin, 2 mM glutamine, 1/500 hypoxanthine-thymidine (ATCC), 90% IMDM media (JRH BIOSCIENCES, Lenexa, Kans., USA), 0.7 mg/ml G418 (GIBCO)] in 5% CO2 at 37° C. until colonies were visible. Each colony was separated and propagated. The cell clone with the highest number of human NK1R was selected for subsequent applications such as drug screening.
The binding assay of human NK1R expressed in either COS or CHO cells is based on the use of ^125 I-substance P (^125 I-SP, from DU PONT, Boston, Mass.) as a radioactively labeled ligand which competes with unlabeled substance P or any other ligand for binding to the human NK1R. Monolayer cell cultures of COS or CHO were dissociated by the non-enzymatic solution (SPECIALTY MEDIA, Lavellette, N.J.) and resuspended in appropriate volume of the binding buffer (50 mM Tris pH 7.5, 5 mM MnCl2, 150 mM NaCl, 0.04 mg/ml bacitracin, 0.004 mg/ml leupeptin, 0.2 mg/ml BSA, 0.01 mM phosphoramidon) such that 200 μl of the cell suspension would give rise to about 10,000 cpm of specific ^125 I-SP binding (approximately 50,000 to 200,000 cells). In the binding assay, 200 ul of cells were added to a tube containing 20 ul of 1.5 to 2.5 nM of ^125 I-SP and 20 μl of unlabeled substance P or any other test compound. The tubes were incubated at 4° C. or at room temperature for 1 hour with gentle shaking. The bound radioactivity was separated from unbound radioactivity by GF/C filter (BRANDEL, Gaithersburg, Md.) which was prewetted with 0.1% polyethylenimine. The filter was washed with 3 ml of wash buffer (50 mM Tris pH 7.5, 5 mM MnCl2, 150 mM NaCl) three times and its radioactivity was determined by gamma counter.
With `Cc1cc(C)cc(COC2C3CCN(CC3)C2C(Cc2ccccc2)c2ccccc2)c1` (single isomer, unassigned) [1: ISOMER A], the IC50 (usually the concentration that gives 50% inhibition) is 2.4 nM.
Take `Cc1cc(C)cc(COC2C3CCN(CC3)C2C(Cc2ccccc2)c2ccccc2)c1` (single isomer, unassigned) [1: ISOMER B]: the IC50 worked out at 1.8 nM.
In turn, `Cc1cc(C)cc(COC2C3CCN(CC3)C2C(Cc2ccccc2)c2ccccc2)c1` (single isomer, unassigned) [1: ISOMER C] registered an IC50 of more than 100 nM.
The figure for `FC(F)(F)c1cc(COC2C3CCN(CC3)C2C(Cc2ccccc2)c2ccccc2)cc(C(F)(F)F)c1` (single isomer, unassigned) [2: ISOMER A] is 4.5 nM; for `FC(F)(F)c1cc(COC2C3CCN(CC3)C2C(Cc2ccccc2)c2ccccc2)cc(C(F)(F)F)c1` (single isomer, unassigned) [2: ISOMER B] it is 6.3 nM; for `FC(F)(F)c1cc(COC2C3CCN(CC3)C2C(Cc2ccccc2)c2ccccc2)cc(C(F)(F)F)c1` (single isomer, unassigned) [2: ISOMER C] it is more than 100 nM.
The figure for `COc1ccc(C(Cc2ccccc2)C2C(OCc3cc(C(F)(F)F)cc(C(F)(F)F)c3)C3CCN2CC3)cc1` (single isomer, unassigned) [3: ISOMER A] is 3 nM; for `COc1cccc(C(Cc2ccccc2)C2C(OCc3cc(C(F)(F)F)cc(C(F)(F)F)c3)C3CCN2CC3)c1` (single isomer, unassigned) [4: ISOMER A] it is 10 nM.
Under `COc1cccc(C(Cc2ccccc2)C2C(OCc3cc(C(F)(F)F)cc(C(F)(F)F)c3)C3CCN2CC3)c1` (single isomer, unassigned) [4: ISOMER B] stands 1.8 nM.
`FC(F)(F)c1cc(COC2C3CCN(CC3)C2C(c2ccccc2)C2CCCCC2)cc(C(F)(F)F)c1` (stereo not drawn) [Example 5, 3-(3,5-Bis(trifluoromethyl)phenyl)methyloxy-2-(α-cyclohexylbenzyl)-1-azabicyclo[2.2.2]octane oxalate hemihydrate] showed an IC50 of 3 nM.
